In US20060287533A1, “SOLVENT CONTAINING 1,2,5-THIADIAZOLE COMPOUND, AND METHOD FOR EXTRACTING AN ORGANIC COMPOUND USING THE SOLVENT” (Waseda University, priority 2004, published 2006):

Key:
Format in all cases: physicochemical
[1] = Separatory funnel phase separation of 1,2,5-thiadiazole and water; details: 10 ml 1,2,5-thiadiazole and 10 ml water, shaken vigorously, allowed to stand
Experimental: A 10 ml of 1,2,5-thiadiazole and 10 ml of water were put into a separatory funnel, and the system was shaken vigorously, to be allowed to stand.

[2] = Compatibility of 1,2,5-thiadiazole with other solvents; parameters: key: ◯: Circle: fully compatible to give a uniform mixture; Triangle: giving a white turbidity; X-mark: being divided into two phases; details: 1,2,5-thiadiazole mixed with the listed solvent at volume ratio 1/1 (2 ml), room temperature, visual inspection
Experimental: For 1,2,5-thiadiazole of the present invention, its compatibility with other solvents was studied. The test consisted of mixing 1,2,5-thiadiazole with another solvent at a volume ratio of 1/1 (2 ml), allowing the system to stand at room temperature, and visually inspecting the compatibility of the former with the latter.
Circle: fully compatible to give a uniform mixture
Triangle: giving a white turbidity
X-mark: being divided into two phases

[3] = Extracting activity: partition of compound between water phase and organic phase (TLC); details: for Ratio of content of compound in water phase against organic phase (Example 4): 2 mg compound in 100 μl 1,2,5-thiadiazole + 100 μl distilled water; for Ratio of content of compound in water phase against organic phase (Comp. Ex. 3): 2 mg compound in 100 μl chloroform + 100 μl distilled water; for Ratio of content of compound in water phase against organic phase (Comp. Ex. 4): 2 mg compound in 100 μl diethylether + 100 μl distilled water
Experimental: The extracting activity of 1,2,5-thiadiazole of the present invention was studied. A 2 mg of each of compounds 1 to 20 was dissolved in 100 μl of 1,2,5-thiadiazole, to which 100 μl of distilled water was added, and the system was subjected to separation operation. The ratio of the content of the compound in water phase against the counterpart in organic phase was determined using TLC, and the results are shown in Table 3.
The same procedure as in Example 4 was repeated except that 1,2,5-thiadiazole was replaced with chloroform, to determine the comparative extracting activity of chloroform.
The same procedure as in Example 4 was repeated except that 1,2,5-thiadiazole was replaced with diethylether, to determine the comparative extracting activity of diethylether.

[4] = Dissolving capability: amount of solvent needed to completely dissolve 20 mg of compound; details: 20 mg compound, room temperature; for Addition amount of solvent until compound completely dissolved (Example 3): solvent 1,2,5-thiadiazole, stirring; for Amount of solvent required for completely dissolving the compound (Comp. Ex. 1): solvent chloroform; for Amount of solvent required for completely dissolving the compound (Comp. Ex. 2): solvent diethylether
Experimental: The dissolving capability of 1,2,5-thiadiazole of the present invention was studied. A 20 mg of each of compounds 1 to 20 was transferred into a sample vial, to which 1,2,5-thiadiazole was added at room temperature with stirring. The addition was continued until the compound was completely dissolved, and the addition amount of the solvent was determined.
The same procedure as in Example 3 was repeated except that 1,2,5-thiadiazole was replaced with chloroform. The amount of the solvent required for completely dissolving the compound was determined.
The same procedure as in Example 3 was repeated except that 1,2,5-thiadiazole was replaced with diethylether. The amount of the solvent required for completely dissolving the compound was determined.

Compound | Phase separation from water [1] | Compatibility [2] | Ratio of content of compound in water phase against organic phase (Example 4) [3] | Ratio of content of compound in water phase against organic phase (Comp. Ex. 3) [3] | Ratio of content of compound in water phase against organic phase (Comp. Ex. 4) [3] | Addition amount of solvent until compound completely dissolved (Example 3) [4] | Amount of solvent required for completely dissolving the compound (Comp. Ex. 1) [4] | Amount of solvent required for completely dissolving the compound (Comp. Ex. 2) [4]
1,2,5-thiadiazole | clearly divided into two phases |  |  |  |  |  |  | 
CC(C)=O [Acetone] |  | ◯ |  |  |  |  |  | 
CC#N [Acetonitrile] |  | ◯ |  |  |  |  |  | 
c1ccccc1 [Benzene] |  | ◯ |  |  |  |  |  | 
O=C1Cc2ccccc2N1 [Compound 1] |  |  | 1/100 | 1/10 | 1/5 | 100 µL | 400 µL | 2000 µL
CO[C@H]1OC(COCc2ccccc2)[C@H](N=[N+]=[N-])CC1NS(=O)(=O)c1ccc(C)cc1 (stereo partly drawn) [Compound 2] |  |  | 0/100 | 1/50 | 1/4 | 140 µL | 240 µL | 1600 µL
O=C1C(OCc2ccccc2)=C[C@@H](CO)[C@@H]1CO [Compound 3] |  |  | 1/5 | 4/5 | Hardly soluble | 160 µL | 200 µL | Insoluble
COCOc1cc(OCOC)c2c(c1)C(S(=O)(=O)c1ccccc1)OC2=O (stereo not drawn) [Compound 4] |  |  | 0/100 | Hardly soluble | Hardly soluble | 1000 µL | Hardly soluble | Hardly soluble
O=C(O)CNC(=O)OCc1ccccc1 [Compound 5] |  |  | 0/100 | 1/5 | 0/100 | 1000 µL | 2000 µL | 2000 µL
Cc1ccc(S(=O)(=O)OCCC2(CCS(=O)(=O)c3ccccc3)OCCO2)cc1 [Compound 6] |  |  | 0/100 | 1/5 | Hardly soluble | 1000 µL | 2000 µL | Hardly soluble
CC(=O)Oc1ccc(OC(C)=O)c(OC(C)=O)c1 [Compound 7] |  |  | 0/100 | 0/100 | 0/100 | 100 µL | 200 µL | 2000 µL
CO[C@H]1OC2COC(c3ccccc3)O[C@H]2C(O)C1NS(=O)(=O)c1ccc(C)cc1 (stereo partly drawn) [Compound 8] |  |  | 1/15 | 1/15 | 1/15 | 200 µL | 240 µL | 1600 µL
Cc1ccc(S(=O)(=O)O[C@@H]2C(C)O[C@@H](OCc3ccccc3)C3OC(=O)OC32)cc1 (stereo partly drawn) [Compound 9] |  |  | 0/100 | 0/100 | 0/100 | 20 µL | 200 µL | 6000 µL
COCOc1cc(OC)c(OC)c2c1C(=O)OC2 [Compound 10] |  |  | 0/100 | 1/100 | Hardly soluble | 200 µL | 400 µL | Hardly soluble
CC(C)(C)[Si](C)(C)OCC1=CC2(OCCO2)C(O)C(O)C1=O (stereo not drawn) [Compound 11] |  |  |  |  |  | 200 µL | 400 µL | Hardly soluble
CC/C=C(\C)CN1C(=O)OC[C@H]1C(C)C [Compound 12] |  |  |  |  |  | 200 µL | 200 µL | 200 µL
O=C1C=CC2(C=C1CO)OCCO2 [Compound 14] |  |  |  |  |  | 100 µL | 100 µL | 2000 µL
CC1(C)OCc2cc(OCCO)ccc2O1 [Compound 15] |  |  |  |  |  | 100 µL | 100 µL | 2400 µL
COCCCCC(O)C(O)C(=O)OC (stereo not drawn) [Compound 16] |  |  |  |  |  | 100 µL | 100 µL | 200 µL
Cc1oc2ccccc2c(=O)c1C [Compound 17] |  |  |  |  |  | 40 µL | 40 µL | 4000 µL
CC(=O)OCC1OCCC(OC(C)=O)[C@@H]1OC(C)=O (stereo partly drawn) [Compound 18] |  |  |  |  |  | 200 µL | 200 µL | 200 µL
CCCCCC(=O)CC(=O)NC1CCOC1=O (stereo not drawn) [Compound 19] |  |  |  |  |  | 100 µL | 100 µL | 4800 µL
CN(C)C=O [Dimethylformamide] |  | ◯ |  |  |  |  |  | 
CCO [Ethanol] |  | ◯ |  |  |  |  |  | 
CCOC(C)=O [Ethyl acetate] |  | ◯ |  |  |  |  |  | 
CO [Methanol] |  | ◯ |  |  |  |  |  | 
Cc1ccccc1 [Toluene] |  | ◯ |  |  |  |  |  | 
O [Water] |  | X |  |  |  |  |  | 
CCCCCC [n-Hexane] |  | ◯ |  |  |  |  |  | 
Xylene |  | ◯ |  |  |  |  |  | 
